Reference: patent publication US20240166687A1, “REGULATORY T CELL-INDUCING PEPTIDE AND COMPOSITION INCLUDING SAME FOR PREVENTING OR TREATING AUTOIMMUNE DISEASE” (IUCF-HYU (INDUSTRY-UNIVERSITY COOPERATION FOUNDATION …, priority 2021, published 2024)
“Also recorded” adds a separate entry of the source.

Tests used:
[1] = tested on: multiple sclerosis animal model; experiment: Analysis of efficiency in multiple sclerosis (MS) animal model (MOG35-55/CFA + PTX); format: in vivo, C57BL/6 mice; conditions: for clinical symptoms (clinical score): 100 μg (5 mg/kg) intraperitoneally once a day from day 7 after PTX; for clinical symptoms (clinical score) / number of Treg cells (spinal cord) / number of infiltrated lymphocytes in the spinal cord: comparator as named in the value
Method: 8-week-old female C57BL/6 mice were purchased from Orient Bio (Daejeon, Korea). All animal experiments were conducted in compliance with the animal experiment operation regulations of the Institutional Animal Care and Use Committee of Hanyang University. The mice were acclimatized for 2 weeks before the experiment. The mice were raised in a breeding room maintained at temperature 22±2° C. and 40-60% humidity with free access to feed. The light and dark cycles were adjusted at 12-hour intervals. Multiple sclerosis was induced by subcutaneous immunization using a MOG35-55/CFA emulsion PTX kit (Hooke Labs, Lawrence, MA, USA) according to the manufacturer's protocol. The mice were anesthetized with isoflurane and MOG35-55/CFA was subcutaneously injected bilaterally, followed by intraperitoneal injection of PTX (pertussis toxin) 2 hours and 24 hours later. The mice were randomly assigned to different groups after MOG immunization. Because paralysis due to immune response begins on day 7 after the injection of PTX, 100 μg (5 mg/kg) of the samples according to the present disclosure were intraperitoneally injected to the groups once a day from day 7. Each group was monitored every day after inducing multiple sclerosis and clinical symptoms were recorded. The clinical symptoms were evaluated based on the scoring system described in Table 2. The higher clinical scores indicate severer symptoms. The mice were euthanized at the end of the experiments and lymphocytes were isolated from the spinal cords. The isolated spinal cords were treated at 37° C. with 1 mg/mL of DNase 1 (10104159001; Sigma-Aldrich) and 1 mg/mL of collagenase D (11088866001; Sigma-Aldrich) and incubated at 80 rpm on a shaker for 40 minutes. After the enzyme treatment, 500 mM EDTA was added and lymphocytes were isolated by Percoll (GE Healthcare, Little Chalfont, UK) density-gradient centrifugation. The isolated infiltrated lymphocytes were restimulated with a cell stimulation cocktail (plus protein transport inhibitors) (ThermoFisher) at 37° C. for 4 hours and stained with anti-mouse CD4. The cells were fixed, permeabilized using a Foxp3/transcription factor staining buffer set (eBioscience) and stained with anti-mouse IFN-γ, anti-mouse IL-17 or anti-mouse Foxp3. The cells were analyzed using a FACS Canto flow cytometer and the FlowJo software version 10.7.1. For histological analysis, paraffin blocks of the spinal cord tissues were deparaffinized and treated with luxol fast blue. For combination staining, hematoxylin and eosin were used (Dako). The cells infiltrated in the white matter region of the spinal cord tissues were counted using the Image J software version 2.0.0. The increased number of Th1 and Th17 immune cells in the spinal cord means more severe multiple sclerosis, and the increased number of Treg cells means that the function of preventing or treating autoimmune disease such as multiple sclerosis is improved as the tolerance to self-antigens is maintained and the excessive response by the immune system is prevented.

[2] = tested on: Th17 cells differentiated from splenocytes isolated from mouse; experiment: Analysis of effect under Th17 differentiation conditions (flow cytometry of IL-17A and Foxp3); format: cell-based; conditions: sample 2 μM; for effect of suppressing immune response (decrease of IL-17 and increase of Foxp3): flow cytometry 4 days later, comparator as named in the value (Th17/PBS control, K1, AP-K2)
Excerpt: Th17 cells are a subset of CD4 T cells. The Th17 cells are known to secrete a cytokine known as IL-17 and cause inflammation. This is the major cause of autoimmune disease. And, Treg cells (regulatory T cells) are known to suppress and regulate inflammation by expressing the transcription factor called Foxp3. Accordingly, since it is thought that the effect of preventing and treating autoimmune disease may be achieved by regulating inflammation by inhibiting Th17 cells (IL-17) and increasing Treg (Foxp3) cells, the effect of the peptides of the present disclosure was investigated.
Undifferentiated CD4 T cells (naive CD4 T cells) were isolated from splenocytes of 6- to 8-week-old C57BL/6 mice using a mouse undifferentiated CD4+ T cell (naive CD4 T cell) isolation kit (Miltenyi Biotec, Auburn, CA, USA) according to the manufacturer's protocols. For RNAseq, the undifferentiated CD4 T cells (naive CD4 T cells) from the Foxp3-GFP mice were purified, differentiated into Th17 cells and sorted into Foxp3^+ and Foxp3^− populations using a cell sorter (FACS Aria cell sorter BD Biosciences, Franklin Lakes, NJ, USA). The purified undifferentiated CD4 T cells (naive CD4 T cells) were activated with plate-bound anti-CD3 (2 or 5 μg/mL, 553057; BD Pharmingen, La Jolla, CA) and anti-CD28 (2 or 5 μg/mL, 553294; BD Pharmingen, La Jolla, CA) antibodies and differentiated by treating with the following cytokine cocktails in a 96-well plate for 3 or 4 days: Th0; recombinant human TGF-β(R&D Systems) 0.25 ng/mL. Th1; anti-IL-4 (11B11; 16-7041-85; eBioscience) 5 μg/mL, IL-2 (212-12; Peprotech, Rocky Hill, NJ) 50 U/mL, recombinant murine IL-12 (212-12; Peprotech) 2 ng/mL, recombinant human TGF-β (R&D Systems) for Th1 0.25 ng/mL. Th17; anti-IFN-γ (XMG1.2; 16-7311-85; eBioscience) 5 μg/mL, anti-IL-4 (11B11; 16-7041-85; eBioscience) 5 μg/mL, recombinant murine TGF-β (7666-MB, R&D Systems, Minneapolis, MN) 2 ng/mL, IL-6 (216-16; Peprotech) 30 ng/mL, IL-23 (1887-ML-101; R&D Systems) 20 ng/mL, IL-1β (401-ML-010; R&D Systems) 20 ng/mL, and IL-2 (Peprotech) 50 U/mL. Treg; IL-2 (Peprotech) 50 U/mL and TGF-β (R&D Systems) 0.5 ng/mL.
The cells were cotreated with the cytokine cocktails and the samples (2 μM). 4 days later, they were analyzed by flow cytometry using IL-17 and Foxp3 fluorescent antibodies. In some experiments, 5 μM PKC-η pseudosubstrate inhibitor (sc-3096; Santa Cruz) or 5 μM ERK inhibitor (UO126, 662005; Sigma) were also added.
For flow cytometric analysis of living cells only, dead cells were excluded using the Zombie Aqua™ fixable viability kit (Biolegend) before staining with antibodies at room temperature for 10 minutes. After washing, surface proteins of the differentiated Th1, Th17 and Treg cells were stained with monoclonal antibodies at 4° C. for 15 minutes. To determine intracellular cytokine levels, the cells were restimulated with a cell stimulation cocktail (plus protein transport inhibitors) (ThermoFisher) at 37° C. for 4 hours and then stained with surface marker antibodies. The cells were then fixed, permeabilized using a Foxp3/transcription factor staining buffer set (eBioscience) and stained with anti-mouse IFN-γ, anti-mouse IL-17 and anti-mouse Foxp3. The cells were analyzed using a FACS Canto II flow cytometer and the FlowJo software version 10.7.

[3] = 100 μg intraperitoneally once a day from day 7

RRRWCKRRRGGKMLKKRSKMLKKRS (AP-K2)
clinical symptoms (clinical score) [1]: significantly improved results for clinical symptoms as compared to the PBS (control group); also recorded: significantly improved result for clinical symptoms as compared to the PBS group
number of regulatory T cells (Treg) compared to dNP2-ctCTLA-4 [1, 3]: an increase comparable to that of dNP2-ctCTLA-4
number of Treg cells (spinal cord) [1, 3]: significantly number of regulatory T cells (Treg) as compared to the PBS (control group)
number of infiltrated lymphocytes in the spinal cord [1, 3]: significantly smaller number of infiltrated lymphocytes in the spinal cord as compared to the PBS (control group), dNP2 and AP groups; also recorded: significantly smaller number of infiltrated lymphocytes in the spinal cord than the PBS (control group)
number of infiltrated lymphocytes in the spinal cord, ranking among the groups ([1]; 100 μg intraperitoneally once a day from day 7 to day 13, groups K2, AP-K2, Myr-K2, Myr-K3): most superior effects
expression of IL-17 T cells, IFN-γ T cells and Foxp3 T cells compared to PBS ([1]; 100 μg intraperitoneally once a day from day 7 to day 13, spinal cord lymphocytes): inhibited expression of II-17 T cells and IFN-γ T cells and increase of Foxp3 T cells as compared to the PBS (control group)
effect of inhibiting the IL-17 cytokine compared to the dNP2-ctCTLA-4 group ([2]; 4 days): remarkably superior effect of inhibiting the IL-17 cytokine as compared to the dNP2-ctCTLA-4 group
reduction of IL-17 as compared to the control group ([2]; 4 days, CD4+IL-17A+ T cells): reduced IL-17 to half or less
increase of Foxp3 as compared to the control group ([2]; 4 days, CD4+foxp3+ T cells): ≥ 5 times
effect of suppressing immune response (decrease of IL-17 and increase of Foxp3) [2]: significantly better effect of suppressing immune response than the PBS (control group)

RRRWCKRRRGGKMLKKRSKMLKKRSKMLKKRS (AP-K3)
clinical symptoms (clinical score) [1]: significantly improved results for clinical symptoms as compared to the PBS (control group)
number of Treg cells (spinal cord) [1, 3]: significantly number of regulatory T cells (Treg) as compared to the PBS (control group)
number of infiltrated lymphocytes in the spinal cord [1, 3]: significantly smaller number of infiltrated lymphocytes in the spinal cord as compared to the PBS (control group), dNP2 and AP groups
effect of inhibiting the IL-17 cytokine compared to the dNP2-ctCTLA-4 group ([2]; 4 days): remarkably superior effect of inhibiting the IL-17 cytokine as compared to the dNP2-ctCTLA-4 group
effect of suppressing immune response (decrease of IL-17 and increase of Foxp3) [2]: significantly better effect of suppressing immune response than the PBS (control group)

B1: KIKKVKKKGRKGSKIKKVKKKGRKGGAMLAAASPLTTGVYVKMPPTEPECEKQFQPYFIPIN (peptide)
chain: KIKKVKKKGRKGSKIKKVKKKGRKGGAMLAAASPLTTGVYVKMPPTEPECEKQFQPYFIPIN
notes: dNP2-ctCTLA-4 variant, K motif residues replaced with alanine
clinical symptoms (clinical score) [1]: significantly lower clinical symptoms as compared to the PBS group
number of Treg cells (spinal cord) [1, 3]: smallest number of Treg cells
number of infiltrated lymphocytes in the spinal cord [1, 3]: significantly larger number of infiltrated lymphocytes in the spinal cord as compared to the PBS group
function of inhibiting myelin damage (histological analysis of the spinal cord) ([1]; 100 μg intraperitoneally once a day from day 7 to day 14, luxol fast blue, H&E): the function of inhibiting myelin damage was lost
effect of suppressing immune response (decrease of IL-17 and increase of Foxp3) [2]: the function of the decrease of IL-17 and the increase of Foxp3 was lost
